PubChem BioAssay (NCI)
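Step 1: Grow cells in 96-well plates. Step 2: Expose to compound for 48 hours at 5 concentrations. Step 3: Interpolate endpoints linearly; if unreached, use highest concentration. GI50 is the concentration that inhibits growth by half. Definition used: TGI = concentration required for complete inhibition of growth.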

Key:
Assay in all cases: DTP human tumour cell line panel, 48 h
[1] = tested on: 786-0 renal
[2] = tested on: A498 renal
[3] = tested on: A549 NSCLC
[4] = tested on: ACHN renal
[5] = tested on: BT-549 breast
[6] = tested on: CAKI-1 renal
[7] = tested on: CCRF-CEM leukemia
[8] = tested on: COLO 205 colon
[9] = tested on: DU-145 prostate
[10] = tested on: EKVX NSCLC
[11] = tested on: HCC-2998 colon
[12] = tested on: HCT-116 colon
[13] = tested on: HCT-15 colon
[14] = tested on: HL-60(TB) leukemia
[15] = tested on: HOP-62 NSCLC
[16] = tested on: HOP-92 NSCLC
[17] = tested on: HS 578T breast
[18] = tested on: HT29 colon
[19] = tested on: IGROV1 ovarian
[20] = tested on: K-562 leukemia
[21] = tested on: KM12 colon
[22] = tested on: LOX IMVI melanoma
[23] = tested on: M14 melanoma
[24] = tested on: MALME-3M melanoma
[25] = tested on: MCF7 breast
[26] = tested on: MDA-MB-231 breast
[27] = tested on: MDA-MB-435
[28] = tested on: MOLT-4 leukemia
[29] = tested on: NCI-H226 lung
[30] = tested on: NCI-H23 lung
[31] = tested on: NCI-H460 lung
[32] = tested on: NCI-H522 lung
[33] = tested on: NCI/ADR-RES ovarian
[34] = tested on: OVCAR-3 ovarian
[35] = tested on: OVCAR-4 ovarian
[36] = tested on: OVCAR-5 ovarian
[37] = tested on: OVCAR-8 ovarian
[38] = tested on: PC-3 prostate
[39] = tested on: RPMI-8226 leukemia
[40] = tested on: RXF 393 renal
[41] = tested on: SF-268 CNS
[42] = tested on: SF-295 CNS
[43] = tested on: SF-539 CNS
[44] = tested on: SK-MEL-2 melanoma
[45] = tested on: SK-MEL-28 melanoma
[46] = tested on: SK-MEL-5 melanoma
[47] = tested on: SK-OV-3 ovarian
[48] = tested on: SN12C renal
[49] = tested on: SNB-19 CNS
[50] = tested on: SNB-75 CNS
[51] = tested on: SR leukemia
[52] = tested on: SW-620 colon
[53] = tested on: T-47D breast
[54] = tested on: TK-10 renal
[55] = tested on: U251 CNS
[56] = tested on: UACC-257 melanoma
[57] = tested on: UACC-62 melanoma
[58] = tested on: UO-31 renal

SMILES: CC(C)(C)N1CCC1C(N)=O (stereo unspecified)
- GI50 [1]: > 100 µM
- TGI [1]: > 100 µM
- GI50 [2]: > 100 µM
- TGI [2]: > 100 µM
- GI50 [3]: > 100 µM
- TGI [3]: > 100 µM
- GI50 [4]: > 100 µM
- TGI [4]: > 100 µM
- GI50 [5]: > 100 µM
- TGI [5]: > 100 µM
- GI50 [6]: > 100 µM
- TGI [6]: > 100 µM
- GI50 [7]: > 100 µM
- TGI [7]: > 100 µM
- GI50 [8]: > 100 µM
- TGI [8]: > 100 µM
- GI50 [9]: > 100 µM
- TGI [9]: > 100 µM
- GI50 [10]: > 100 µM
- TGI [10]: > 100 µM
- GI50 [11]: > 100 µM
- TGI [11]: > 100 µM
- GI50 [12]: > 100 µM
- TGI [12]: > 100 µM
- GI50 [13]: > 100 µM
- TGI [13]: > 100 µM
- GI50 [14]: > 100 µM
- TGI [14]: > 100 µM
- GI50 [15]: > 100 µM
- TGI [15]: > 100 µM
- GI50 [16]: > 100 µM
- TGI [16]: > 100 µM
- GI50 [17]: > 100 µM
- TGI [17]: > 100 µM
- GI50 [18]: > 100 µM
- TGI [18]: > 100 µM
- GI50 [19]: > 100 µM
- TGI [19]: > 100 µM
- GI50 [20]: > 100 µM
- TGI [20]: > 100 µM
- GI50 [21]: > 100 µM
- TGI [21]: > 100 µM
- GI50 [22]: > 100 µM
- TGI [22]: > 100 µM
- GI50 [23]: > 100 µM
- TGI [23]: > 100 µM
- GI50 [24]: > 100 µM
- TGI [24]: > 100 µM
- GI50 [25]: > 100 µM
- TGI [25]: > 100 µM
- GI50 [26]: > 100 µM
- TGI [26]: > 100 µM
- GI50 [27]: > 100 µM
- TGI [27]: > 100 µM
- GI50 [28]: > 100 µM
- TGI [28]: > 100 µM
- GI50 [29]: > 100 µM
- TGI [29]: > 100 µM
- GI50 [30]: > 100 µM
- TGI [30]: > 100 µM
- GI50 [31]: > 100 µM
- TGI [31]: > 100 µM
- GI50 [32]: > 100 µM
- TGI [32]: > 100 µM
- GI50 [33]: > 100 µM
- TGI [33]: > 100 µM
- GI50 [34]: > 100 µM
- TGI [34]: > 100 µM
- GI50 [35]: > 100 µM
- TGI [35]: > 100 µM
- GI50 [36]: > 100 µM
- TGI [36]: > 100 µM
- GI50 [37]: > 100 µM
- TGI [37]: > 100 µM
- GI50 [38]: > 100 µM
- TGI [38]: > 100 µM
- GI50 [39]: > 100 µM
- TGI [39]: > 100 µM
- GI50 [40]: > 100 µM
- TGI [40]: > 100 µM
- GI50 [41]: > 100 µM
- TGI [41]: > 100 µM
- GI50 [42]: > 100 µM
- TGI [42]: > 100 µM
- GI50 [43]: > 100 µM
- TGI [43]: > 100 µM
- GI50 [44]: > 100 µM
- TGI [44]: > 100 µM
- GI50 [45]: > 100 µM
- TGI [45]: > 100 µM
- GI50 [46]: > 100 µM
- TGI [46]: > 100 µM
- GI50 [47]: > 100 µM
- TGI [47]: > 100 µM
- GI50 [48]: > 100 µM
- TGI [48]: > 100 µM
- GI50 [49]: > 100 µM
- TGI [49]: > 100 µM
- GI50 [50]: > 100 µM
- TGI [50]: > 100 µM
- GI50 [51]: > 100 µM
- TGI [51]: > 100 µM
- GI50 [52]: > 100 µM
- TGI [52]: > 100 µM
- GI50 [53]: > 100 µM
- TGI [53]: > 100 µM
- GI50 [54]: > 100 µM
- TGI [54]: > 100 µM
- GI50 [55]: > 100 µM
- TGI [55]: > 100 µM
- GI50 [56]: > 100 µM
- TGI [56]: > 100 µM
- GI50 [57]: > 100 µM
- TGI [57]: > 100 µM
- GI50 [58]: > 100 µM
- TGI [58]: > 100 µM
